# Measurements taken from EP2970215B1, “PYRROLIDINE DERIVATIVES, PHARMACEUTICAL COMPOSITIONS CONTAINING THEM, AND THEIR USE IN THERAPY” (AbbVie Deutschland GmbH & Co. KG, priority 2013, dated 2014).
# Molecular target: T1, human GlyT1c transporter (Homo sapiens, UniProt P48067)
# T1 construct: expressed in transfected cells; host or cells: CHO cells (recombinant; line hGlyT1c_5_CHO is named for the uptake assay)
# T1 sequence (P48067 1-706): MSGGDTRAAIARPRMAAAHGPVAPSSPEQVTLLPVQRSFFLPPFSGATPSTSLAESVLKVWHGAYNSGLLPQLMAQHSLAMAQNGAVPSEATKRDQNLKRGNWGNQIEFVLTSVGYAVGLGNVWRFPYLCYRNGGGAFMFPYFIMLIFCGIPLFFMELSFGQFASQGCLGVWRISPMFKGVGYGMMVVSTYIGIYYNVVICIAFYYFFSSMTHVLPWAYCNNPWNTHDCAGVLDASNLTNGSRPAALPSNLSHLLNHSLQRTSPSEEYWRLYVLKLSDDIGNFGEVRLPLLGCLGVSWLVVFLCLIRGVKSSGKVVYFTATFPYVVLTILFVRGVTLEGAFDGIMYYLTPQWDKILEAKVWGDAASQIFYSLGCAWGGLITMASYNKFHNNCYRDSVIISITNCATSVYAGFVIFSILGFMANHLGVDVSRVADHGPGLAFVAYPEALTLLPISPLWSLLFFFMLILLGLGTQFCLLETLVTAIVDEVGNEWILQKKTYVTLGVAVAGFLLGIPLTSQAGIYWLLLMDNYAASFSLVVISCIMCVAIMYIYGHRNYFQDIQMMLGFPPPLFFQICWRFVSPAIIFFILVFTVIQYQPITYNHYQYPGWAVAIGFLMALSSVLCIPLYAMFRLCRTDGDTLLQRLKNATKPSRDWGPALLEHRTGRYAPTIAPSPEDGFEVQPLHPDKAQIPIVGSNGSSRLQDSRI
# Experiment: Radioligand binding assay using recombinant CHO cell membranes expressing human GlyT1
# Details: radioligand binding to human GlyT1c transporter-expressing membranes
# Source text: 2. Radioligand binding assays using recombinant CHO cell membranes expressing human GlyT1: […]
row,Ki [µM],SMILES
1,≤ 1,"CCC(C)C(C)CN[C@H]1CN(S(=O)(=O)c2cn(C)cn2)C[C@@H]1c1ccccc1 (stereo partly drawn) [Example 561, (3R,4S)-N-(2,3-dimethylpentyl)-1-[(1-methyl-1H-imidazol-4-yl)sulfonyl]-4-phenylpyrrolidin-3-amine]"
2,≤ 1,"Cn1cnc(S(=O)(=O)N2C[C@H](NCC3CC3c3ccccc3)[C@@H](c3ccccc3)C2)c1 (stereo partly drawn) [Example 564, (3R,4S)-1-[(1-methyl-1H-imidazol-4-yl)sulfonyl]-4-phenyl-N-[(2-phenylcyclopropyl)methyl]pyrrolidin-3-amine]"
3,≤ 10,"Cn1cnc(S(=O)(=O)N2C[C@H](NCc3scnc3Cl)[C@@H](c3ccccc3)C2)c1 [Example 565, (3R,4S)-N-[(4-chloro-1,3-thiazol-5-yl)methyl]-1-[(1-methyl-1H-imidazol-4-yl)sulfonyl]-4-phenylpyrrolidin-3-amine]"
4,≤ 10,"CC(CN[C@H]1CN(S(=O)(=O)c2cn(C)cn2)C[C@@H]1c1ccccc1)C(F)(F)F (stereo partly drawn) [Example 566, (3R,4S)-1-[(1-methyl-1H-imidazol-4-yl)sulfonyl]-4-phenyl-N-(3,3,3-trifluoro-2-methylpropyl)pyrrolidin-3-amine]"
5,≤ 1,"Cn1cnc(S(=O)(=O)N2C[C@H](NCc3ccnc(Cl)c3F)[C@@H](c3ccccc3)C2)c1 [Example 567, (3R,4S)-N-[(2-chloro-3-fluoropyridin-4-yl)methyl]-1-[(1-methyl-1H-imidazol-4-yl)sulfonyl]-4-phenylpyrrolidin-3-amine]"
6,≤ 0.1,"Cn1cnc(S(=O)(=O)N2C[C@H](NCc3cc4cc(F)ccc4s3)[C@@H](c3ccccc3)C2)c1 [Example 568, (3R,4S)-N-[(5-fluoro-1-benzothiophen-2-yl)methyl]-1-[(1-methyl-1H-imidazol-4-yl)sulfonyl]-4-phenylpyrrolidin-3-amine]"
7,≤ 1,"Cn1cnc(S(=O)(=O)N2C[C@H](NCc3cc(Cl)ccc3OC(F)F)[C@@H](c3ccccc3)C2)c1 [Example 569, (3R,4S)-N-[5-chloro-2-(difluoromethoxy)benzyl]-1-[(1-methyl-1H-imidazol-4-yl)sulfonyl]-4-phenylpyrrolidin-3-amine]"
8,≤ 0.01,"Cn1cnc(S(=O)(=O)N2C[C@H](NCc3cc(Cl)sc3Cl)[C@@H](c3ccccc3)C2)c1 [Example 570, (3R,4S)-N-[(2,5-dichlorothiophen-3-yl)methyl]-1-[(1-methyl-1H-imidazol-4-yl)sulfonyl]-4-phenylpyrrolidin-3-amine]"
9,≤ 10,"Cn1cnc(S(=O)(=O)N2C[C@H](NCc3cccnc3-c3ccc(F)cc3)[C@@H](c3ccccc3)C2)c1 [Example 571, (3R,4S)-N-{[2-(4-fluorophenyl)pyridin-3-yl]methyl}-1-[(1-methyl-1H-imidazol-4-yl)sulfonyl]-4-phenylpyrrolidin-3-amine]"
10,≤ 1,"Cc1ccc(-c2ncc(CN[C@H]3CN(S(=O)(=O)c4cn(C)cn4)C[C@@H]3c3ccccc3)s2)cc1 [Example 572, (3R,4S)-1-[(1-methyl-1H-imidazol-4-yl)sulfonyl]-N-{[2-(4-methylphenyl)-1,3-thiazol-5-yl]methyl}-4-phenylpyrrolidin-3-amine]"
11,≤ 10,"Cc1nc(N[C@H]2CN(S(=O)(=O)c3cn(C)cn3)C[C@@H]2c2ccccc2)nn1C [Example 575, 1,5-dimethyl-N-{(3R,4S)-1-[(1-methyl-1H-imidazol-4-yl)sulfonyl]-4-phenylpyrrolidin-3-yl}-1H-1,2,4-triazol-3-amine]"
12,≤ 10,"CCOCCCNC(=O)[C@@H]1CN(S(=O)(=O)c2cn(C)cn2)C[C@H]1c1ccc(F)cc1 [Example 578, (3S,4R)-N-(3-ethoxypropyl)-4-(4-fluorophenyl)-1-[(1-methyl-1H-imidazol-4-yl)sulfonyl]pyrrolidine-3-carboxamide]"
13,≤ 10,"COCCNC(=O)[C@@H]1CN(S(=O)(=O)c2cn(C)cn2)C[C@H]1c1ccc(F)cc1 [Example 579, (3S,4R)-4-(4-fluorophenyl)-N-(2-methoxyethyl)-1-[(1-methyl-1H-imidazol-4-yl)sulfonyl]pyrrolidine-3-carboxamide]"
14,≤ 1,"CCCNC(=O)[C@@H]1CN(S(=O)(=O)c2cn(C)cn2)C[C@H]1c1ccc(F)cc1 [Example 580, (3S,4R)-4-(4-fluorophenyl)-1-[(1-methyl-1H-imidazol-4-yl)sulfonyl]-N-propylpyrrolidine-3-carboxamide]"
15,≤ 10,"COCC(C)NC(=O)[C@@H]1CN(S(=O)(=O)c2cn(C)cn2)C[C@H]1c1ccc(F)cc1 (stereo partly drawn) [Example 582, (3S,4R)-4-(4-fluorophenyl)-N-[1-methoxypropan-2-yl]-1-[(1-methyl-1H-imidazol-4-yl)sulfonyl]pyrrolidine-3-carboxamide]"
16,≤ 10,"COCCCNC(=O)[C@H]1CN(S(=O)(=O)c2cn(C)cn2)C[C@@H]1c1ccc(F)cc1 [Example 583, (3R,4S)-4-(4-fluorophenyl)-N-(3-methoxypropyl)-1-[(1-methyl-1H-imidazol-4-yl)sulfonyl]pyrrolidine-3-carboxamide]"
17,≤ 10,"CCOCCNC(=O)[C@@H]1CN(S(=O)(=O)c2cn(C)cn2)C[C@H]1c1ccc(F)cc1 [Example 584, (3S,4R)-N-(2-ethoxyethyl)-4-(4-fluorophenyl)-1-[(1-methyl-1H-imidazol-4-yl)sulfonyl]pyrrolidine-3-carboxamide]"
18,≤ 0.1,"Cn1cnc(S(=O)(=O)N2C[C@H](Nc3ccc(Cl)c(OC(F)(F)F)c3)[C@@H](c3ccc(F)cc3)C2)c1 [Example 585, (3R,4S)-N-[4-chloro-3-(trifluoromethoxy)phenyl]-4-(4-fluorophenyl)-1-[(1-methyl-1H-imidazol-4-yl)sulfonyl]pyrrolidin-3-amine]"
19,≤ 1,"Cn1cnc(S(=O)(=O)N2C[C@@H](C(=O)NCC3CC3)[C@H](c3ccc(F)cc3)C2)c1 [Example 586, (3S,4R)-N-(cyclopropylmethyl)-4-(4-fluorophenyl)-1-[(1-methyl-1H-imidazol-4-yl)sulfonyl]pyrrolidine-3-carboxamide]"
20,≤ 10,"CC(C)OCCNC(=O)[C@@H]1CN(S(=O)(=O)c2cn(C)cn2)C[C@H]1c1ccc(F)cc1 [Example 587, (3S,4R)-4-(4-fluorophenyl)-1-[(1-methyl-1H-imidazol-4-yl)sulfonyl]-N-[2-(propan-2-yloxy)ethyl]pyrrolidine-3-carboxamide]"
21,≤ 10,"COCCCN[C@H]1CN(S(=O)(=O)c2cn(C)cn2)C[C@@H]1c1ccccc1 [Example 588, (3R,4S)-N-(3-methoxypropyl)-1-[(1-methyl-1H-imidazol-4-yl)sulfonyl]-4-phenylpyrrolidin-3-amine]"
22,≤ 1,"CCOCCCN[C@H]1CN(S(=O)(=O)c2cn(C)cn2)C[C@@H]1c1ccccc1 [Example 589, (3R,4S)-N-(3-ethoxypropyl)-1-[(1-methyl-1H-imidazol-4-yl)sulfonyl]-4-phenylpyrrolidin-3-amine]"
23,≤ 10,"COCC1(CN[C@H]2CN(S(=O)(=O)c3cn(C)cn3)C[C@@H]2c2ccccc2)CC1 [Example 590, (3R,4S)-N-{[1-(methoxymethyl)cyclopropyl]methyl}-1-[(1-methyl-1H-imidazol-4-yl)sulfonyl]-4-phenylpyrrolidin-3-amine]"
24,≤ 10,"COCCN[C@H]1CN(S(=O)(=O)c2cn(C)cn2)C[C@@H]1c1ccccc1 [Example 600, (3R,4S)-N-(2-methoxyethyl)-1-[(1-methyl-1H-imidazol-4-yl)sulfonyl]-4-phenylpyrrolidin-3-amine]"
25,≤ 1,"COc1nc(N[C@H]2CN(S(=O)(=O)c3cn(C)cn3)C[C@@H]2c2ccccc2)cc(C(F)(F)F)n1 [Example 605, 2-methoxy-N-{(3R,4S)-1-[(1-methyl-1H-imidazol-4-yl)sulfonyl]-4-phenylpyrrolidin-3-yl} -6-(trifluoromethyl)pyrimidin-4-amine]"
26,≤ 0.1,"Cn1cnc(S(=O)(=O)N2C[C@H](Nc3cc(Cl)ncn3)[C@@H](c3ccccc3)C2)c1 [Example 606, 6-chloro-N-{(3R,4S)-1-[(1-methyl-1H-imidazol-4-yl)sulfonyl]-4-phenylpyrrolidin-3-yl}pyrimidin-4-amine]"
27,≤ 10,"Cn1cnc(S(=O)(=O)N2C[C@@H](CNCC3CC3)[C@H](c3ccc(F)cc3)C2)c1 [Example 607, 1-cyclopropyl-N-({(3R,4R)-4-(4-fluorophenyl)-1-[(1-methyl-1H-imidazol-4-yl)sulfonyl]pyrrolidin-3-yl}methyl)methanamine]"
28,≤ 10,"CCOCCN[C@H]1CN(S(=O)(=O)c2cn(C)cn2)C[C@@H]1c1ccccc1 [Example 608, (3R,4S)-N-(2-ethoxyethyl)-1-[(1-methyl-1H-imidazol-4-yl)sulfonyl]-4-phenylpyrrolidin-3-amine]"
29,≤ 1,"CCCOCCN[C@H]1CN(S(=O)(=O)c2cn(C)cn2)C[C@@H]1c1ccccc1 [Example 609, (3R,4S)-1-[(1-methyl-1H-imidazol-4-yl)sulfonyl]-4-phenyl-N-(2-propoxyethyl)pyrrolidin-3-amine]"
30,≤ 10,"Cn1cnc(S(=O)(=O)N2CC(Nc3ccc(F)c(F)c3)C(C3CCCO3)C2)c1 (stereo not drawn) [Example 610, N-(3,4-difluorophenyl)-1-[(1-methyl-1H-imidazol-4-yl)sulfonyl]-4-[-tetrahydrofuran-2-yl]pyrrolidin-3-amine]"
